{
  "source": "patent US8314150B2",
  "about": "“Kinase protein binding inhibitors” (priority 2008, dated 2012)",
  "system": "Panc-1 cells",
  "assay": "Detachment assay, Panc-1",
  "assay_type": "cell-based, human",
  "conditions": "for detachment: 48 hours",
  "description": "Cell Viability Assay—The Cells were treated with peptides for 24 hours at different peptide concentrations. The 3-(4,5-dimethylthiazol-2-yl)-5-(3-carboxymethoxyphenyl)-2-(4-sulfophenyl)-2H-tetrazolium compound from Promega Viability kit (Madison, Ill.) was added, and the cells were incubated at 37° C. for 1-2 hours. The optical density on 96-plate was analyzed with a microplate reader at 490 nm to determine cell viability. In addition, cells were stained with trypan blue after 24 hours of treatment with Y15 and the percent of cells that stained positive were determined with a hemacytometer. Cell adhesion assay—The poly-L-Lysine or Collagen (5 μg/ml) coated 96-well plates were blocked with the blocking buffer (medium with 0.5% BSA) for 1 hour at 37 C. The cells were pre-treated with drugs for 3 hours and plated for adhesion at 4×10^5 cells. Cells were incubated at 37 C for 1 hour, fixed in 3.7% formaldehyde, washed in 0.1% BSA in PBS and stained with crystal violet (5 mg/ml in 2% ethanol) for 10 minutes. Then 2% SDS was added to the dried plated and OD at 590 nm was measured for detecting cell adhesion. […] Protein concentrations were determined using a Bio-Rad Kit. The boiled samples were loaded on Ready SDS-10% PAGE gels (Bio Rad, Inc) and used for Western blot analysis with the protein-specific antibody. […] We calculated the percent of detachment by dividing the number of detached cells by the total number of cells. The percent of detached cells was calculated in three independent experiments. […] The percent of apoptotic cells was calculated as a ratio of apoptotic detached cells divided by the total number of cells in three independent experiments in several fields with the fluorescent microscope. For each experiment 300 cells per treatment were counted. […]",
  "data": [
    {"compound": "Cl.Cl.Cl.Cl.Nc1cc(N)c(N)cc1N", "note": "[Y15, 1,2,4,5-benzenetetraamine tetrahydrochloride]", "values": [
      {"measurement": "detachment compared with TAE226", "result": "more detachment than TAE226"},
      {"measurement": "detachment", "setting": "10 μM", "result": 13, "unit": "%"},
      {"measurement": "detachment", "setting": "50 μM", "result": 32, "unit": "%"}
    ]}
  ]
}
